The source made the active and inactive calls. No cut-off for these calls is given here.
Tests used:
K562 [1] = assay: Growth inhibition of drug-resistant human K562 cells after 48 hrs by SRB assay; type: functional; conditions: K562, 48 h
K562 [2] = assay: Growth inhibition of human K562 cells after 48 hrs by SRB assay; type: functional; conditions: K562, 48 h
HT-29 = assay: Growth inhibition of human HT-29 cells after 48 hrs by SRB assay; type: functional; conditions: HT-29, 48 h
CCRF-CEM = assay: Growth inhibition of human CCRF-CEM cells after 48 hrs by SRB assay; type: functional
HL-60(TB) = assay: Growth inhibition of human HL-60(TB) cells after 48 hrs by SRB assay; type: functional; conditions: HL-60, 48 h
MOLT-4 = assay: Growth inhibition of human MOLT4 cells after 48 hrs by SRB assay; type: functional; conditions: MOLT-4, 48 h
RPMI-8226 = assay: Growth inhibition of human RPMI8226 cells after 48 hrs by SRB assay; type: functional; conditions: RPMI-8226, 48 h
SR = assay: Growth inhibition of human SR cells after 48 hrs by SRB assay; type: functional
A549 = assay: Growth inhibition of human A549 cells after 48 hrs by SRB assay; type: functional; conditions: A549, 48 h
EKVX = assay: Growth inhibition of human EKVX cells after 48 hrs by SRB assay; type: functional
HOP-62 = assay: Growth inhibition of human HOP62 cells after 48 hrs by SRB assay; type: functional; conditions: HOP-62, 48 h
HOP-92 = assay: Growth inhibition of human HOP92 cells after 48 hrs by SRB assay; type: functional; conditions: HOP-92, 48 h
NCI-H226 = assay: Growth inhibition of human NCI-H226 cells after 48 hrs by SRB assay; type: functional; conditions: NCI-H226, 48 h
NCI-H23 = assay: Growth inhibition of human NCI-H23 cells after 48 hrs by SRB assay; type: functional; conditions: NCI-H23, 48 h
NCI-H322M = assay: Growth inhibition of human NCI-H322M cells after 48 hrs by SRB assay; type: functional
NCI-H460 = assay: Growth inhibition of human NCI-H460 cells after 48 hrs by SRB assay; type: functional; conditions: NCI-H460, 48 h
NCI-H522 = assay: Growth inhibition of human NCI-H522 cells after 48 hrs by SRB assay; type: functional; conditions: NCI-H522, 48 h
COLO 205 = assay: Growth inhibition of human COLO205 cells after 48 hrs by SRB assay; type: functional; conditions: COLO 205, 48 h
HCC 2998 = assay: Growth inhibition of human HCC2998 cells after 48 hrs by SRB assay; type: functional; conditions: HCC 2998, 48 h
HCT-116 = assay: Growth inhibition of human HCT116 cells after 48 hrs by SRB assay; type: functional; conditions: HCT-116, 48 h
HCT-15 = assay: Growth inhibition of human HCT15 cells after 48 hrs by SRB assay; type: functional; conditions: HCT-15, 48 h
LOX IMVI = assay: Growth inhibition of human LOXIMVI cells after 48 hrs by SRB assay; type: functional
Malme-3M = assay: Growth inhibition of human MALME-3M cells after 48 hrs by SRB assay; type: functional
M14 = assay: Growth inhibition of human M14 cells after 48 hrs by SRB assay; type: functional; conditions: M14, 48 h
SK-MEL-28 = assay: Growth inhibition of human SK-MEL-28 cells after 48 hrs by SRB assay; type: functional; conditions: SK-MEL-28, 48 h
SK-MEL-5 = assay: Growth inhibition of human SK-MEL-5 cells after 48 hrs by SRB assay; type: functional; conditions: SK-MEL-5, 48 h
UACC-257 = assay: Growth inhibition of human UACC257 cells after 48 hrs by SRB assay; type: functional; conditions: UACC-257, 48 h
UACC-62 = assay: Growth inhibition of human UACC62 cells after 48 hrs by SRB assay; type: functional; conditions: UACC-62, 48 h
IGROV-1 = assay: Growth inhibition of human IGROV1 cells after 48 hrs by SRB assay; type: functional; conditions: IGROV-1, 48 h
OVCAR-3 = assay: Growth inhibition of human OVCAR-3 cells after 48 hrs by SRB assay; type: functional; conditions: OVCAR-3, 48 h
OVCAR-4 = assay: Growth inhibition of human OVCAR4 cells after 48 hrs by SRB assay; type: functional; conditions: OVCAR-4, 48 h
OVCAR-5 = assay: Growth inhibition of human OVCAR5 cells after 48 hrs by SRB assay; type: functional; conditions: OVCAR-5, 48 h
OVCAR-8 = assay: Growth inhibition of human OVCAR8 cells after 48 hrs by SRB assay; type: functional; conditions: OVCAR-8, 48 h
SK-OV-3 = assay: Growth inhibition of human SKOV3 cells after 48 hrs by SRB assay; type: functional; conditions: SK-OV-3, 48 h
786-0 = assay: Growth inhibition of human 786-0 cells after 48 hrs by SRB assay; type: functional; conditions: 786-0, 48 h
A498 = assay: Growth inhibition of human A498 cells after 48 hrs by SRB assay; type: functional; conditions: A498, 48 h
ACHN = assay: Growth inhibition of human ACHN cells after 48 hrs by SRB assay; type: functional
CAKI-1 = assay: Growth inhibition of human Caki1 cells after 48 hrs by SRB assay; type: functional; conditions: CAKI-1, 48 h
RXF 393 = assay: Growth inhibition of human […] cells after 48 hrs by SRB assay; type: functional; conditions: RXF 393, 48 h
SN12C = assay: Growth inhibition of human SN12C cells after 48 hrs by SRB assay; type: functional
TK-10 = assay: Growth inhibition of human TK10 cells after 48 hrs by SRB assay; type: functional; conditions: TK-10, 48 h
UO-31 = assay: Growth inhibition of human UO31 cells after 48 hrs by SRB assay; type: functional; conditions: UO-31, 48 h
PC-3 = assay: Growth inhibition of human PC3 cells after 48 hrs by SRB assay; type: functional; conditions: PC-3, 48 h
DU-145 = assay: Growth inhibition of human DU145 cells after 48 hrs by SRB assay; type: functional; conditions: DU-145, 48 h
MCF7 = assay: Growth inhibition of human MCF7 cells after 48 hrs by SRB assay; type: functional; conditions: MCF7, 48 h
NCI/ADR-RES = assay: Growth inhibition of human NCI/ADR-RES cells after 48 hrs by SRB assay; type: functional
MDA-MB-231 = assay: Growth inhibition of human MDA-MB-231 cells after 48 hrs by SRB assay; type: functional; conditions: MDA-MB-231, 48 h
[3] = Growth inhibition of human Hs 578T cells after 48 hrs by SRB assay; type: functional
MDA-MB-435 = assay: Growth inhibition of human MDA-MB-435 cells after 48 hrs by SRB assay; type: functional; conditions: MDA-MB-435, 48 h
BT-549 = assay: Growth inhibition of human BT549 cells after 48 hrs by SRB assay; type: functional; conditions: BT-549, 48 h
T47D = assay: Growth inhibition of human T47D cells after 48 hrs by SRB assay; type: functional
K562 [4] = assay: Cell cycle arrest in human K562 cells assessed as accumulation at S phase at 180 uM after 24 hrs using propidium iodide staining by flow cytometry; type: functional, cell-based
K562 [5] = assay: Cell cycle arrest in human K562 cells assessed as accumulation at G2/M phase at 180 uM after 24 hrs using propidium iodide staining by flow cytometry; type: functional, cell-based
KM12 = assay: Growth inhibition of human KM12 cells after 48 hrs by SRB assay; type: functional; conditions: KM12, 48 h
SW-620 = assay: Growth inhibition of human SW620 cells after 48 hrs by SRB assay; type: functional; conditions: SW-620, 48 h
SF-268 = assay: Growth inhibition of human SF268 cells after 48 hrs by SRB assay; type: functional; conditions: SF-268, 48 h
SF-295 = assay: Growth inhibition of human SF295 cells after 48 hrs by SRB assay; type: functional; conditions: SF-295, 48 h
SF-539 = assay: Growth inhibition of human SF539 cells after 48 hrs by SRB assay; type: functional; conditions: SF-539, 48 h
SNB-19 = assay: Growth inhibition of human SNB19 cells after 48 hrs by SRB assay; type: functional; conditions: SNB-19, 48 h
SNB-75 = assay: Growth inhibition of human SNB75 cells after 48 hrs by SRB assay; type: functional; conditions: SNB-75, 48 h
U-251 = assay: Growth inhibition of human U251 cells after 48 hrs by SRB assay; type: functional; conditions: U-251, 48 h

`CCc1nc2cc(Cl)ccc2c(=O)n1-c1n[nH]c2ccccc12` gave a GI50 (K562 [1]) of 11.7 µM and a GI50 (K562 [2]) of 10.7 µM.

With `COc1ccccc1NC(=O)n1nc(N)c2ccccc21` the GI50 (HT-29) was > 100 µM, the GI50 (CCRF-CEM) was > 100 µM and the GI50 (HL-60(TB)) was 47.2 µM. For the same compound, the GI50 (K562 [2]) was > 100 µM, the GI50 (MOLT-4) was 54 µM and the GI50 (RPMI-8226) was 86 µM. For the same compound, the GI50 (SR) was 92.5 µM, the GI50 (A549) was > 100 µM and the GI50 (EKVX) was 44.8 µM. For the same compound, the GI50 (HOP-62) was 100 µM, the GI50 (HOP-92) was 30.2 µM and the GI50 (NCI-H226) was > 100 µM. For the same compound, the GI50 (NCI-H23) was > 100 µM, the GI50 (NCI-H322M) was > 100 µM and the GI50 (NCI-H460) was 78.9 µM. For the same compound, the GI50 (NCI-H522) was 49.5 µM, the GI50 (COLO 205) was > 100 µM and the GI50 (HCC 2998) was 66.2 µM. For the same compound, the GI50 (HCT-116) was > 100 µM, the GI50 (HCT-15) was 73.6 µM and the GI50 (LOX IMVI) was 92.1 µM. For the same compound, the GI50 (Malme-3M) was > 100 µM, the GI50 (M14) was > 100 µM and the GI50 (SK-MEL-28) was > 100 µM. The GI50 (SK-MEL-5) was > 100 µM, the GI50 (UACC-257) was > 100 µM and the GI50 (UACC-62) was > 100 µM. For the same compound, the GI50 (IGROV-1) was 27.3 µM, the GI50 (OVCAR-3) was > 100 µM and the GI50 (OVCAR-4) was > 100 µM. For the same compound, the GI50 (OVCAR-5) was > 100 µM, the GI50 (OVCAR-8) was > 100 µM and the GI50 (SK-OV-3) was > 100 µM. The GI50 (786-0) was > 100 µM, the GI50 (A498) was > 100 µM and the GI50 (ACHN) was > 100 µM. The GI50 (CAKI-1) was > 100 µM, the GI50 (RXF 393) was 45.7 µM and the GI50 (SN12C) was > 100 µM. For the same compound, the GI50 (TK-10) was 74.3 µM, the GI50 (UO-31) was > 100 µM and the GI50 (PC-3) was 83.1 µM. The GI50 (DU-145) was > 100 µM, the GI50 (MCF7) was 0.269 µM and the TGI (MCF7) was 64.6 µM. The CC50 (MCF7; read-out: LC50 (the source's name)) was > 100 µM, the GI50 (NCI/ADR-RES) was 90.7 µM and the GI50 (MDA-MB-231) was 46.1 µM. For the same compound, the GI50 [3] was 33.8 µM, the GI50 (MDA-MB-435) was > 100 µM and the GI50 (BT-549) was 28 µM. The GI50 (T47D) was > 100 µM, the Activity (K562 [4]) was “Active” and the Activity (K562 [5]) was “Active”. The GI50 (KM12) was 39.1 µM, the GI50 (SW-620) was > 100 µM and the GI50 (SF-268) was > 100 µM. The GI50 (SF-295) was 56.6 µM, the GI50 (SF-539) was 60.9 µM and the GI50 (SNB-19) was > 100 µM. It also gave a GI50 (SNB-75) of 37 µM and a GI50 (U-251) of 98.7 µM.

Reference: ChEMBL document CHEMBL1152860, “Synthesis and antiproliferative activity of 3-amino-N-phenyl-1H-indazole-1-carboxamides” (2009)
